Holding throughout (type): in vivo
The test system of experiment [1] is Corn of the cultivar DKB 390. Put plainly: Biomass of corn grains, field trial, free disease conditions (example 1.1). As to conditions: corn DKB 390, 150 g of active compound per ha, spray, epoxiconazole pre-treatment, grains 14 to 20% residual moisture. The method, then: (§1) Corn of the cultivar DKB 390 was cultivated under customary conditions (150 kg/ha nitrogen) at Campinas (Brazil) in 2005/2006. One part of the trial was treated with pyraclostrobin (in the form of the commercially available product F500 from BASF; diluted with water to a concentration 0.5 g/l) at the growing stage 34/35 and the other part at GS 55/57 by spraying about 300 l/ha (150 g of active compound per ha). Control plants were treated at GS 35/35 and 55/57, respectively, with a formulation according to that of F500 but without the active compound pyraclostrobin (“blank formulation”). One week prior to the treatment either with the active formulation or with the blank formulation, the plants were treated with epoxiconazole in order to ensure absence of fungal stress. 55 days after the application at GS 55/57, the plants were harvested and the corn grains having a residual moisture content of 14 to 20% by weight, based on the total weight of the grains, were weighed.

The test system of experiment [2] is Corn of the cultivar DKB 390. Put plainly: Biomass of corn grains, field trial, disease conditions (example 1.2). The settings on record: corn DKB 390, 150 g of active compound per ha, without epoxiconazole pre-treatment, grains 14 to 22% residual moisture. The method, then: as §1
The experiments were carried out according to example 1.1, however without the epoxiconazole pre-treatment. Moreover, the concentration of pyraclostrobin in the spray liquor was 1 g/l and 150 l/ha were sprayed (150 g of active compound per ha). The residual moisture content of the grains was 14 to 22% by weight, based on the total weight of the grains.

Experiment [3] relates to Soybean of the variety Conquista. Put plainly: Biomass of soybean grains, field trial, free disease conditions (example 2.1). As to conditions: spray, epoxiconazole pre-treatment, grains 13 to 18% residual moisture. On the procedure: (§2) Soybean of the variety Conquista was cultivated under customary conditions at Campinas (Brazil) in 2005/2006. One part of the trial was treated with pyraclostrobin (in the form of the commercially available product F500 from BASF; diluted with water to a concentration of 0.42 g/l) at the growing stage 61/62 and the other part at GS 65/67 by spraying about 350 l/ha (150 g of active compound per ha). Control plants were treated at GS 61/62 and 65/67, respectively, with a formulation according to that of F500 but without the active compound pyraclostrobin (“blank formulation”). One week prior to the treatment either with the active formulation or with the blank formulation, the plants were treated with epoxiconazole in order to ensure absence of fungal stress. 56 days after the application at GS 65/67, the plants were harvested and the soybean grains having a residual moisture content of 13 to 18% by weight, based on the total weight of the grains, were weighed.

In experiment [4] the test system is Corn of the cultivar DKB 390. The experiment can be described thus: Biomass of corn grains, field trial, free disease conditions, another field (example 1.3). As to conditions: corn DKB 390, another field. The method, then:
as §1
The experiments were carried out according to example 1.1, however using another field.

In experiment [5] the test system is corn of the cultivar DKB 455. The experiment can be described thus: Biomass of corn grains, field trial, free disease conditions (example 1.4). The method, then: as §1
The experiments were carried out according to example 1.1, however using corn of the cultivar DKB 455.

For experiment [6], the system named is Soybean of the variety Conquista. The experiment can be described thus: Biomass of soybean grains, field trial, disease conditions (example 2.2). The settings on record: without epoxiconazole pre-treatment, grains 13 to 22% residual moisture. The method, then:
as §2
The experiments were carried out according to example 2.1, however without the epoxiconazole pre-treatment. The residual moisture content was 13 to 22% by weight, based on the total weight of the grains.

The mark [7] stands for this setting: treated at GS 61/62, 150 g of active compound per ha.
[8] abbreviates: treated at GS 65/67, 150 g of active compound per ha.

For pyraclostrobin, the Yield in experiment [1] (treated at GS 34/35) came out at 10.4 ton/ha; in experiment [1] (treated at GS 55/57), 10.6 ton/ha; in experiment [2] (treated at GS 34/35) it was 8.7 ton/ha; in experiment [2] (treated at GS 55/57), 8.8 ton/ha; in experiment [3] (setting [7]), 2254 kg/ha; in experiment [3] (setting [8]), 2209 kg/ha. The Yield in experiment [4] (treated at GS 34/35, 150 g of active compound per ha) is given as 8.0 ton/ha; in experiment [4] (treated at GS 55/57, 150 g of active compound per ha) it was 8.3 ton/ha; in experiment [5] (corn DKB 455, treated at GS 34/35, 150 g of active compound per ha) it was 8.6 ton/ha; in experiment [5] (corn DKB 455, treated at GS 55/57, 150 g of active compound per ha), 9.2 ton/ha; in experiment [6] (setting [7]), 2163 kg/ha; in experiment [6] (setting [8]), 2120 kg/ha.

(Values after patent US20100075856A1, “METHOD FOR INCREASING THE DRY BIOMASS OF PLANTS” (BASF SE, priority 2006, published 2010).)
